According to US11932850B2, “Cancer chemoprevention with STAT3 blockers” (Jill M. Siegfried, LLC, priority 2018, dated 2024):
Read-outs that look alike come from different tables or passages of the source.

Assays:
[1] = system: STAT1 target genes (IKBKE, IFT2, IFT1, IRF7) and NFκB target genes; conditions: CS3D compared to CS3M treated cells
Experimental: (§1) c-Myc is a STAT3 target gene that is known to be activated by EGF treatment. To investigate the effects of STAT3 blockade on c-Myc expression, cells were first treated with 10 ng/ml EGF for 1.5 hr (deemed the optimal time to observe increased c-Myc RNA), 24 hr after transfection of the cyclic oligonucleotides. RT-qPCR was used to assess differences in mRNA expression in STAT3 decoy-treated versus mutant decoy-treated cells (FIGS. 5A and 5B). […] Cells were treated 24 hours post-transfection with EGF (10 ng/ml) for 1.5 hr and mRNA was harvested from wild-type (A) and mutant EGFR T790M (B) NSCLC cell lines, and mRNA expression was assessed by RT-qPCR. Relative mRNA expression was normalized to GAPDH mRNA levels as an internal control. Statistical significance was determined as *P<0.05. […] Cells were treated 24 hours post-transfection with EGF (10 ng/ml) for 1.5 hr and mRNA was harvested from mutant EGFR T790M (B) NSCLC cell lines. […] Cells were is treated as in FIGS. 5A and 5B, and 3 hr after EGF treatment, lysates were collected from wild-type 201T (left) and mutant EGFR […] H1975 (right) NSCLC cell lines.

[2] = system: c-Myc protein in 201T cells; conditions: 3 hr after EGF, compared to CS3M or lipofectamine alone
Experimental: as §1

[3] = system: c-Myc protein in H1975 cells; conditions: H1975, 3 hr after EGF
Experimental: as §1

201T cells = assay: MTS cell viability assay, 201T; type: cell-based, human
Experimental: NSCLC cell lines (201T and H1975) were transfected with CS3D or CS3M (cyclic STAT3 mutant decoy) at concentrations ranging from 0 nM to 600 nM. Using MTS assays, cell viabilities were assessed 72 hours later. Three independent experiments were performed, using 24-well plates and 4 wells/concentration.
To determine the concentration of CS3D required to inhibit cell viability, increasing concentrations of CS3D was transfected, and after 72 hours, MTS assays were used to assess cell viability. Data were normalized to cells treated with lipofectamine alone.
Fluorescently-labeled CS3M and CS3D (with iFluor) were also produced using enzymatic ligation as described above and used to assess uptake efficiency. Transfections of the cyclic oligonucleotides were performed using Lipofectamine 2000 (Life Technologies) in opti-MEM media (Life Technologies) as follows: Cells were plated at […] confluency, and exposed to transfection media containing the respective circularized oligonucleotides for 24 hours at 37° C. Post-transfection, cell recovery was initiated in media containing 10% heat-inactivated fetal bovine serum.
Dose-response experiments assessing the relative number of metabolically active viable cells were performed by transfecting cells with increasing concentrations of CS3D or CS3M, followed by performance of MTS assays. After 72 hours, 5 mg/ml of MTS reagent was added in the plates and incubated 37° C. for 20 minutes. The plates were then read at 490 nm in a Synergy microplate reader (BioTek, Winooski, Vermont) using Gen5 2.05 software. Data obtained following treatment with C3SD or CS3M were normalized to treatment with lipofectamine alone. […] To assess induction of apoptosis in response to CS3D, H1975 and 201T cells were transfected with 100 nM of CS3M or CS3D. After twenty four hours of transfection, cells were resuspended in annexin V-binding buffer, incubated with 5 μL of propidium iodide (BD Biosciences) and subjected to flow cytometric analysis, using a BD FACS Canto II Flow Cytometer.

H1975 cells = assay: Soft agar colony forming assay, H1975; type: cell-based, human
Description: 1 hr after treatment with EGF.
Following the transfection protocol described above, cells transfected with either CS3D or CS3M were detached from the plate using Trypsin-EDTA (Life Technologies) and seeded at a density of 2×10^4 cells/well (in a 6-well plate) in soft agar to determine the ability of cells to grow in an anchorage-independent setting. Sea Plaque Agarose (Lonza—Rockland, Maine) was used to prepare 0.8% base agarose layer and a 0.48% upper agarose layer containing the transfected cells. 1 ml of appropriate growth media was added into each well and incubated at growth conditions of 37° C. with 5% CO2. Media was replaced every 3-4 days and colony formation was monitored. After 15-20 days, the media was aspirated, and wells were incubated with crystal violet in 10% formalin for 1 h. Using a dissecting scope, colonies were photographed in a 6-well plate (with 4 quadrants/well) using ImageJ software analysis to automatically count colonies, using 35 pixels as a cut-off.

[4] = system: cleaved caspase-3 in H1975 xenografts; assay: IHC of cleaved caspase-3 in H1975 xenografts at end of treatment; type: in vivo, nude mice; conditions: after last day of treatment (day 14)
Description: For mRNA levels in tumor lysates, CS3D produced a 60-70% reduction of c-Myc gene expression relative to GAPDH compared to CS3M (FIG. 7E). […] Some cleaved caspase 3 staining was localized in nuclei, where caspase-3 is known to be active. Some caspase 3 staining was also evident in fibroblasts.
Immunohistochemical analysis: Tumors were excised for immunohistochemical (IHC) staining; 5-μm (micron) sections were cut from formalin-fixed paraffin-embedded tissue blocks, deparaffinized and rehydrated using successive washes of xylene followed by ethanol. Antigen retrieval was performed in a microwave oven (for 20 minutes) in an unmasking solution containing sodium citrate buffer followed by peroxidase blocking in 3% hydrogen peroxide. The sections were incubated in ABC blocking buffer (Vector laboratories Inc, Burlingame, California) for 1 hour at room temperature. Sections were then stained with H&E (hematoxylin and eosin) or subjected to sequential incubations with different primary antibodies and peroxidase-conjugated goat anti-rabbit secondary antibodies. […] Staining was graded as low (<30% positive cells per field, scored as 1), moderate (30-60% positive cells per field, scored as 2) or high (>60% positive cells per field, scored as 3).

[5] = system: c-Myc mRNA in H1975 cells; assay: RT-qPCR of c-Myc mRNA after EGF, H1975; type: cell-based, human; conditions: single transfection, EGF 10 ng/ml 1.5 hr

Substance: CS3D (DNA GATTTACGGGAAATGCSCATTTCCC; cyclic decoy with two hexaethylene glycol linkers, further chemistry not given here)
- mRNA expression of STAT1 and NFκB target genes [1]: no decrease in mRNA expression level
- reduction in c-Myc protein expression [2]: 31%
- reduction in c-Myc protein expression [3]: 40%
- inhibition in proliferation (201T cells; 0.3 μM transfection, 201T, relative to CS3M): 50%
- IC50 (201T cells; 201T (WT EGFR), MTS 72 hours, read-out: IC50): ~300 nM
- IC50 (201T cells; 201T, EGFR WT, KRAS WT, MTS at 72 hours after transfection, read-out: CS3D IC50): 300 nM
- disruption of anchorage-independent growth (H1975 cells; 300 nM single transfection, at 15 days, H1975, compared to CS3M): 70%
- reduction of colony formation in soft agar (H1975 cells; one transfection, H1975 (FIG. 4A)): 65%
- fields scoring high level of cleaved caspase-3 [4]: 83%
- inhibition in mRNA level of c-Myc [5]: 25-30%
